{
  "source": "patent US20240238228A1",
  "about": "“COMPOSITIONS AND METHODS FOR TREATING ALLERGIES AND INFLAMMATORY CONDITIONS” (UNIVERSITY OF PITTSBURGH-OF THE COMMONWEALTH SYSTEM OF …, priority 2021, published 2024)",
  "molecules": {"B1": {"name": "calpain: purified human calpain I (Athens Research and Technology), IL-10 degrading cysteine protease (protein)", "chain": "SEEIITPVYCTGVSAQVQKQRARELGLGRHENAIKYLGQDYEQLRVRCLQSGTLFRDEAFPPVPQSLGYKDLGPNSSKTYGIKWKRPTELLSNPQFIVDGATRTDICQGALGDCWLLAAIASLTLNDTLLHRVVPHGQSFQNGYAGIFHFQLWQFGEWVDVVVDDLLPIKDGKLVFVHSAEGNEFWSALLEKAYAKVNGSYEALSGGSTSEGFEDFTGGVTEWYELRKAPSDLYQIILKALERGSLLGCSIDISSVLDMEAITFKKLVKGHAYSVTGAKQVNYRGQVVSLIRMRNPWGEVEWTGAWSDSSSEWNNVDPYERDQLRVKMEDGEFWMSFRDFMREFTRLEICNLTPDALKSRTIRKWNTTLYEGTWRRGSTAGGCRNYPATFWVNPQFKIRLDETDDPDDYGDRESGCSFVLALMQKHRRRERRFGRDMETIGFAVYEVPPELVGQPAVHLKRDFFLANASRARSEQFINLREVSTRFRLPPGEYVVVPSTFEPNKEGDFVLRFFSEKSAGTVELDDQIQANLPDEQVLSEEEIDENFKALFRQLAGEDMEISVKELRTILNRIISKHKDLRTKGFSLESCRSMVNLMDRDGNGKLGLVEFNILWNRIRNYLSIFRKFDLDKSGSMSAYEMRMAIESAGFKLNKKLYELIITRYSEPDLAVDFDNFVCCLVRLETMFRFFKTLDTDLDGVVTFDLFKWLQLTMFA"}, "B2": {"name": "recombinant IL-10: recombinant murine IL-10 (Peprotech) (protein)", "chain": "SRGQYSREDNNCTHFPVGQSHMLLELRTAFSQVKTFFQTKDQLDNILLTDSLMQDFKGYLGCQALSEMIQFYLVEVMPQAEKHGPEIKEHLNSLGEKLKTLRMRLRRCHRFLPCENKSKAVEQVKSDFNKLQDQGVYKAMNEFDIFINCIEAYMMIKMKS"}},
  "key": {"[1]": {"target": "calpain released into cell-free supernatants by IgE-activated murine BMMCs (murine) (UniProt O35350)", "test": "cell-based or functional assay"}, "calpain": {"system": "calpain", "test": "Calpain inhibition in cell-free BMMC supernatants pulsed with inhibitor", "format": "biochemical, murine", "details": "Ac-calpastatin 20 μg/mL, 30 min; mean±SEM from n=3", "description": "(§1) Calpain activity was detected from cell-free supernatants using the Calpain-Glo Protease Assay (Promega). Supernatants were incubated with substrate for 10 min prior to luminescent detection. In some experiments, glyburide or vehicle (0.1% DMSO) were added to cells 10 min prior to Ag. ELISA kits from eBioscience (IL-13), BioLegend, (TNF and IL-10) or RayBiotech (NKA) and used in accord with the manufacturer's recommendations.\n(§2) To detect early IL-10 release, 4×10^6 cells were incubated in serum free RPMI for a minimum of three hours prior to IgE loading and activation with DNP-HSA (100 ng/mL). Supernatants were collected and IL-10 was detected in accord with manufacturer's recommendations using 1.0% BSA to block and a top standard of 250 pg/mL. The lower limit of detection was 7.8 pg/mL. To evaluate the role of relationship between calpain and IL-10, cell-free supernatants were collected 10 min after activation and incubated with Ac-calpastatin (Ac-Cal; 20 μg/mL, Cayman) or vehicle control. Ac-Cal containing supernatants were further incubated for 30 min prior to IL-10 quantification by ELISA. To directly test IL-10 proteolysis, MCs were activated for 45 min, cell free supernatants were collected and pulsed with recombinant IL-10 (Biolegend, 250 pg/mL)."}, "IL-10": {"system": "IL-10", "test": "IL-10 degradation assays on BMMC supernatants", "format": "cell-based, murine", "details": "supernatants collected 10 min after activation, pulsed with Ac-calpastatin 30 min", "description": "as §2, with “Ac-Cal containing supernatants were further incubated for 30 min prior to IL-10 quantification by ELISA.” left out"}, "MCs": {"system": "MCs", "details": "previous studies; cited from earlier work"}, "peanut allergy": {"system": "peanut allergy", "test": "Peanut allergy desensitization by microneedle arrays", "format": "in vivo, mouse", "details": "mouse, in vivo"}, "IL-33": {"system": "IL-33", "details": "mouse, in vivo"}, "recombinant murine IL-10": {"system": "recombinant murine IL-10", "test": "Degradation of recombinant IL-10 by purified calpain (Western blot)", "format": "biochemical", "details": "rIL-10 incubated with increasing concentrations of purified calpain, 60 min", "description": "The IL-10 degrading capacity of calpain, recombinant murine IL-10 (Peprotech) was incubated with human calpain I (Athens Research and Technology) for 60 min at 37° C., then denatured with Laemelli Buffer (BioRad) and resolved on 10% Tris-Glycine SDS-PAGE gels (BioRad). Proteins were transferred to […] PVDF membranes (BioRad), blocked for 1 h with Odyssey Blocking Buffer (LI-COR) and probed overnight with goat anti-mouse IL-10 antibody (RnD Systems). Ant-IL10 was detected with donkey anti-goat 800CW (LI-COR) and visualized on a LI-COR Imaging System. Densitometry was calculated using ImageStudioLite v5.2.5 (Licor). Values are presented as (rIL-10+calpain)/rIL-10 alone)*100."}, "NKA": {"system": "NKA", "test": "NKA in skin homogenates by ELISA", "format": "in vivo, mouse", "details": "IL-10 1.0 ng/ear; without PCA induction", "description": "as §1\nMouse ears were measured with a micrometer then sensitized with IgE in filter-sterilized PBS (Sigma, clone SPE-7, 20 ng/50 μl/ear) or vehicle control. Twenty-four hours later mice were treated with NKA (10 μg/ear, intradermal) or vehicle (PBS) 3 h prior to Ag (DNP-HSA 100 μg, in 200 μl, intravenous in saline) administration. Data are presented as change in ear thickness between baseline and the indicated time. Where indicated, mice were treated with recombinant murine IL-10 (Peprotech, 1.0 ng/ear) at the time of IgE injection or treated with glyburide (2.5 mg/kg, i.p), 3 h prior to Ag administration.\nCytokine expression in the skin was investigated 24 h after PCA induction. […] Protein concentrations were quantified using the BCA Protein Assay (Pierce). […] Densitometry values subtracting the median background from individual spot areas were calculated with ImageStudioLite v5.2.5. […]"}},
  "note": "No end group written: not given here.",
  "data": [
    {"molecule": "Ac-calpastatin (Cayman) (from UniProt P20810 184-210) (peptide)", "values": [
      {"measurement": "calpain activity", "setting": "[1]", "result": 20.1, "unit": "%"}
    ]},
    {"molecule": "Ac-calpastatin: a calpain inhibitor (Cayman) (Ac-DPMSSTYIEELGKREVTIPPKYRELLA; not fully specified (C-terminus)) [reference compound]", "values": [
      {"measurement": "inhibition of calpain activity", "setting": "calpain", "result": "20.1±1.72", "unit": "%"},
      {"measurement": "IL-10 levels in supernatants from IgE-activated BMMCs", "setting": "IL-10", "result": "partially restored"}
    ]},
    {"molecule": "NKA(4-10): a naturally truncated form of NKA [reference compound]", "values": [
      {"measurement": "effect on MCs (β-hexosaminidase or histamine release as readouts)", "setting": "MCs", "result": "no effect"}
    ]},
    {"molecule": "botulinum toxin A", "values": [
      {"measurement": "allergy to peanut allergen after CPE challenge", "setting": "peanut allergy", "result": "desensitizes"},
      {"measurement": "IL-33 expression in skin", "setting": "IL-33", "result": "reduces IL-33 expression"}
    ]},
    {"molecule": "B1", "values": [
      {"measurement": "amount of IL-10 detected by Western blot", "setting": "recombinant murine IL-10", "result": "inversely proportional to calpain concentration"}
    ]},
    {"molecule": "B2", "values": [
      {"measurement": "steady state NKA in skin homogenates", "setting": "NKA", "result": "significantly increased"}
    ]}
  ]
}
